Patent US4740601A, “Imidazole derivatives having antimicrobial activities” (SS Pharmaceutical Co., Ltd., priority 1985, dated 1988)
Converted amounts (≈) assume the structure as drawn.

system: Sarcina lutea ATCC 9341; assay: antimicrobial activity, MIC; format: cell-based; conditions: Micrococcus luteus, ATCC9341, Sarcina lutea ATCC 9341; read-out: MIC

SMILES	MIC [µg/mL]
CCCCCSC=C(c1ccccc1OCC)n1ccnc1 (single isomer, unassigned) [Compound 49]	3.12 (≈ 9.86 µM)

system: Pyricularia oryzae IAM 5016; assay: microbe, parasite or virus in culture; format: cell-based; conditions: Pyricularia oryzae, IAM5016, Pyricularia oryzae IAM 5016

SMILES	MIC [µg/mL]
CCCCCSC=C(c1ccccc1OCC)n1ccnc1 (single isomer, unassigned) [Compound 49]	< 0.2

system: Cladosporium fulvum IAM 5006; assay: antimicrobial activity, MIC; format: cell-based; conditions: Fulvia fulva, IAM5006, Cladosporium fulvum IAM 5006; read-out: MIC

SMILES	MIC [µg/mL]
CCCCCSC=C(c1ccccc1OCC)n1ccnc1 (single isomer, unassigned) [Compound 49]	25 (≈ 79 µM)

system: Staphylococcus aureus Smith; assay: antimicrobial activity, MIC; format: cell-based; conditions: Staphylococcus aureus, read-out: MIC

SMILES	MIC [µg/mL]
CCCCCSC=C(c1ccccc1OCC)n1ccnc1 (single isomer, unassigned) [Compound 49]	12.5 (≈ 39.5 µM)

system: Fusarium moniliforme IAM 5062; assay: antimicrobial activity, MIC; format: cell-based; conditions: Fusarium verticillioides, IAM5062, Fusarium moniliforme IAM 5062; read-out: MIC

SMILES	MIC [µg/mL]
CCCCCSC=C(c1ccccc1OCC)n1ccnc1 (single isomer, unassigned) [Compound 49]	1.56 (≈ 4.93 µM)

system: Penicillium chrysogenum ATCC 6010; assay: antimicrobial activity, MIC; format: cell-based; conditions: Penicillium chrysogenum, ATCC6010, Penicillium chrysogenum ATCC 6010; read-out: MIC

SMILES	MIC [µg/mL]
CCCCCSC=C(c1ccccc1OCC)n1ccnc1 (single isomer, unassigned) [Compound 49]	6.25 (≈ 19.7 µM)

system: Staphylococcus aureus FDA 209P; assay: antimicrobial activity, MIC; format: cell-based; conditions: Staphylococcus aureus, FDA209P, read-out: MIC

SMILES	MIC [µg/mL]
CCCCCSC=C(c1ccccc1OCC)n1ccnc1 (single isomer, unassigned) [Compound 49]	12.5 (≈ 39.5 µM)

system: Helminthosporium sesamum IAM 5012; assay: antimicrobial activity, MIC; format: cell-based; conditions: Helminthosporium, IAM5012, Helminthosporium sesamum IAM 5012; read-out: MIC

SMILES	MIC [µg/mL]
CCCCCSC=C(c1ccccc1OCC)n1ccnc1 (single isomer, unassigned) [Compound 49]	0.39 (≈ 1.23 µM)

system: Candida albicans NHL 4019; assay: antimicrobial activity, MIC; format: cell-based; conditions: Candida albicans, NHL4019, Candida albicans NHL 4019; read-out: MIC

SMILES	MIC [µg/mL]
CCCCCSC=C(c1ccccc1OCC)n1ccnc1 (single isomer, unassigned) [Compound 49]	25 (≈ 79 µM)

system: Trichophyton tonsurans IFO 5928; assay: antimicrobial activity, MIC; format: cell-based; conditions: Trichophyton tonsurans, IFO5928, Trichophyton tonsurans IFO 5928; read-out: MIC

SMILES	MIC [µg/mL]
CCCCCSC=C(c1ccccc1OCC)n1ccnc1 (single isomer, unassigned) [Compound 49]	< 0.2

system: Staphylococcus aureus Terajima; assay: antimicrobial activity, MIC; format: cell-based; conditions: Staphylococcus aureus, read-out: MIC

SMILES	MIC [µg/mL]
CCCCCSC=C(c1ccccc1OCC)n1ccnc1 (single isomer, unassigned) [Compound 49]	6.25 (≈ 19.7 µM)

system: Microsporum gypseum IFO 8231; assay: antimicrobial activity, MIC; format: cell-based; conditions: Nannizzia gypsea, IFO8231, Microsporum gypseum IFO 8231; read-out: MIC

SMILES	MIC [µg/mL]
CCCCCSC=C(c1ccccc1OCC)n1ccnc1 (single isomer, unassigned) [Compound 49]	< 0.2

system: Bacillus subtilis ATCC 6633; assay: antimicrobial activity, MIC; format: cell-based; conditions: Bacillus subtilis, ATCC6633, Bacillus subtilis ATCC 6633; read-out: MIC

SMILES	MIC [µg/mL]
CCCCCSC=C(c1ccccc1OCC)n1ccnc1 (single isomer, unassigned) [Compound 49]	3.12 (≈ 9.86 µM)

system: Saccharomyces ruxii 6507; assay: antimicrobial activity, MIC; format: cell-based; conditions: Saccharomyces ruxii 6507; read-out: MIC

SMILES	MIC [µg/mL]
CCCCCSC=C(c1ccccc1OCC)n1ccnc1 (single isomer, unassigned) [Compound 49]	< 0.2

system: Micrococcus lysodeixticus IFO 3333; assay: antimicrobial activity, MIC; format: cell-based; conditions: Micrococcus, IFO3333, Micrococcus lysodeixticus IFO 3333; read-out: MIC

SMILES	MIC [µg/mL]
CCCCCSC=C(c1ccccc1OCC)n1ccnc1 (single isomer, unassigned) [Compound 49]	1.56 (≈ 4.93 µM)

system: Saccharomyces cerevisiae ATCC 9763; assay: antimicrobial activity, MIC; format: cell-based; conditions: Saccharomyces cerevisiae, ATCC9763, Saccharomyces cerevisiae ATCC 9763; read-out: MIC

SMILES	MIC [µg/mL]
CCCCCSC=C(c1ccccc1OCC)n1ccnc1 (single isomer, unassigned) [Compound 49]	50 (≈ 158 µM)

system: Debaryomyces kloeckeri IFO 0015; assay: antimicrobial activity, MIC; format: cell-based; conditions: IFO0015, read-out: MIC

SMILES	MIC [µg/mL]
CCCCCSC=C(c1ccccc1OCC)n1ccnc1 (single isomer, unassigned) [Compound 49]	12.5 (≈ 39.5 µM)

system: Epidermophyton floccosum IFO 9045; assay: antimicrobial activity, MIC; format: cell-based; conditions: Epidermophyton floccosum, IFO9045, Epidermophyton floccosum IFO 9045; read-out: MIC

SMILES	MIC [µg/mL]
CCCCCSC=C(c1ccccc1OCC)n1ccnc1 (single isomer, unassigned) [Compound 49]	0.78 (≈ 2.46 µM)

system: Microsporum cookei IFO 8303; assay: antimicrobial activity, MIC; format: cell-based; conditions: Paraphyton cookei, IFO8303, Microsporum cookei IFO 8303; read-out: MIC

SMILES	MIC [µg/mL]
CCCCCSC=C(c1ccccc1OCC)n1ccnc1 (single isomer, unassigned) [Compound 49]	1.56 (≈ 4.93 µM)

system: Candida albicans Yu-1200; assay: antimicrobial activity, MIC; format: cell-based; conditions: YU1200, read-out: MIC

SMILES	MIC [µg/mL]
CCCCCSC=C(c1ccccc1OCC)n1ccnc1 (single isomer, unassigned) [Compound 49]	25 (≈ 79 µM)

system: Aspergillus niger ATCC 9642; assay: antimicrobial activity, MIC; format: cell-based; conditions: Aspergillus niger, ATCC9642, Aspergillus niger ATCC 9642; read-out: MIC

SMILES	MIC [µg/mL]
CCCCCSC=C(c1ccccc1OCC)n1ccnc1 (single isomer, unassigned) [Compound 49]	< 0.2

system: Staphylococcus epidermidis ATCC 12228; assay: antimicrobial activity, MIC; format: cell-based; conditions: Staphylococcus epidermidis, ATCC12228, Staphylococcus epidermidis ATCC 12228; read-out: MIC

SMILES	MIC [µg/mL]
CCCCCSC=C(c1ccccc1OCC)n1ccnc1 (single isomer, unassigned) [Compound 49]	3.12 (≈ 9.86 µM)

system: Trichophyton mentagrophytes QM 248; assay: antimicrobial activity, MIC; format: cell-based; conditions: Trichophyton mentagrophytes, QM248, Trichophyton mentagrophytes QM 248; read-out: MIC

SMILES	MIC [µg/mL]
CCCCCSC=C(c1ccccc1OCC)n1ccnc1 (single isomer, unassigned) [Compound 49]	< 0.2

system: Streptococcus faecalis IFO 12964; assay: antimicrobial activity, MIC; format: cell-based; conditions: Enterococcus faecalis, IFO12964, Streptococcus faecalis IFO 12964; read-out: MIC

SMILES	MIC [µg/mL]
CCCCCSC=C(c1ccccc1OCC)n1ccnc1 (single isomer, unassigned) [Compound 49]	6.25 (≈ 19.7 µM)

system: Microsporum audounii IFO 6074; assay: antimicrobial activity, MIC; format: cell-based; conditions: Microsporum, IFO6074, Microsporum audounii IFO 6074; read-out: MIC

SMILES	MIC [µg/mL]
CCCCCSC=C(c1ccccc1OCC)n1ccnc1 (single isomer, unassigned) [Compound 49]	< 0.2

system: Aspergillus oryzae IMF 4014; assay: antimicrobial activity, MIC; format: cell-based; conditions: Aspergillus oryzae, IMF4014, Aspergillus oryzae IMF 4014; read-out: MIC

SMILES	MIC [µg/mL]
CCCCCSC=C(c1ccccc1OCC)n1ccnc1 (single isomer, unassigned) [Compound 49]	0.78 (≈ 2.46 µM)

system: Gibberella fujikuroi IAM 8046; assay: antimicrobial activity, MIC; format: cell-based; conditions: Fusarium fujikuroi, IAM8046, Gibberella fujikuroi IAM 8046; read-out: MIC

SMILES	MIC [µg/mL]
CCCCCSC=C(c1ccccc1OCC)n1ccnc1 (single isomer, unassigned) [Compound 49]	0.39 (≈ 1.23 µM)

system: Trichophyton rubrum NHL J; assay: antimicrobial activity, MIC; format: cell-based; conditions: Trichophyton rubrum, Trichophyton rubrum NHL J; read-out: MIC

SMILES	MIC [µg/mL]
CCCCCSC=C(c1ccccc1OCC)n1ccnc1 (single isomer, unassigned) [Compound 49]	< 0.2

system: Trichophyton mentagrophytes IFO 5812; assay: antimicrobial activity, MIC; format: cell-based; conditions: Trichophyton mentagrophytes, IFO5812, Trichophyton mentagrophytes IFO 5812; read-out: MIC

SMILES	MIC [µg/mL]
CCCCCSC=C(c1ccccc1OCC)n1ccnc1 (single isomer, unassigned) [Compound 49]	< 0.2
